From ChEMBL document CHEMBL2413072, “Synthesis and in vitro anticancer studies of novel C-2 arylidene congeners of lantadenes” (2013)

How the values were obtained:
Assay type in all cases: functional
CCRF-CEM [1] = assay: Growth inhibition of human CCRF-CEM cells assessed as cell growth at 10 uM by sulforhodamine B assay; conditions: read-out: Activity
HCT-116 = assay: Growth inhibition of human HCT116 cells assessed as cell growth at 10 uM by sulforhodamine B assay; conditions: read-out: Activity
RXF 393 [2] = assay: Growth inhibition of human RXF393 cells assessed as cell growth at 10^-7 M by sulforhodamine B assay; conditions: read-out: Activity
DU-145 = assay: Growth inhibition of human DU145 cells assessed as cell growth at 10^-6 M by sulforhodamine B assay; conditions: read-out: Activity
[3] = Growth inhibition of human Hs 578T cells assessed as growth inhibition at 10 uM by sulforhodamine B assay; conditions: read-out: GI
BT-549 [4] = assay: Growth inhibition of human BT549 cells assessed as cell growth at 10^-8 M by sulforhodamine B assay; conditions: read-out: Activity
T47D [5] = assay: Growth inhibition of human T47D cells assessed as cell growth at 10 uM by sulforhodamine B assay; conditions: read-out: Activity
OVCAR-3 = assay: Growth inhibition of human OVCAR3 cells by sulforhodamine B assay
A498 [6] = assay: Growth inhibition of human A498 cells assessed as cell growth at 10^-8 M by sulforhodamine B assay; conditions: read-out: Activity
OVCAR-5 = assay: Growth inhibition of human OVCAR5 cells assessed as cell growth at 10^-6 M by sulforhodamine B assay; conditions: read-out: Activity
A498 [7] = assay: Growth inhibition of human A498 cells assessed as cell growth at 10 uM by sulforhodamine B assay; conditions: read-out: Activity
BT-549 [8] = assay: Growth inhibition of human BT549 cells assessed as cell growth at 10 uM by sulforhodamine B assay; conditions: read-out: Activity
HOP-92 = assay: Growth inhibition of human HOP92 cells assessed as cell growth at 10^-8 M by sulforhodamine B assay; conditions: read-out: Activity
HT-29 = assay: Growth inhibition of human HT-29 cells assessed as cell growth at 10^-6 M by sulforhodamine B assay; conditions: read-out: Activity
T47D [9] = assay: Growth inhibition of human T47D cells assessed as cell growth at 10^-7 M by sulforhodamine B assay; conditions: read-out: Activity
UO-31 = assay: Growth inhibition of human UO31 cells assessed as growth inhibition at 10 uM by sulforhodamine B assay; conditions: read-out: GI
ACHN = assay: Growth inhibition of human ACHN cells assessed as growth inhibition at 10 uM by sulforhodamine B assay; conditions: read-out: GI
SF-539 [10] = assay: Growth inhibition of human SF539 cells by sulforhodamine B assay
OVCAR-8 = assay: Growth inhibition of human OVCAR8 cells assessed as growth inhibition at 10 uM by sulforhodamine B assay; conditions: read-out: GI
UACC-62 = assay: Growth inhibition of human UACC62 cells by sulforhodamine B assay
NCI-H460 = assay: Growth inhibition of human NCI-H460 cells assessed as cell growth at 10 uM by sulforhodamine B assay; conditions: read-out: Activity
LOX IMVI [11] = assay: Growth inhibition of human LOXIMVI cells assessed as cell growth at 10 uM by sulforhodamine B assay; conditions: read-out: Activity
786-0 = assay: Growth inhibition of human 786-0 cells assessed as cell growth at 10^-6 M by sulforhodamine B assay; conditions: read-out: Activity
CCRF-CEM [12] = assay: Growth inhibition of human CCRF-CEM cells assessed as growth inhibition at 10 uM by sulforhodamine B assay; conditions: read-out: GI
[13] = Growth inhibition of human HCC2998 cells by sulforhodamine B assay
SR = assay: Growth inhibition of human SR cells assessed as cell growth at 10 uM by sulforhodamine B assay; conditions: read-out: Activity
NCI-H322M = assay: Growth inhibition of human NCI-H322M cells assessed as cell growth at 10^-6 M by sulforhodamine B assay; conditions: read-out: Activity
LOX IMVI [14] = assay: Growth inhibition of human LOXIMVI cells assessed as growth inhibition at 10 uM by sulforhodamine B assay; conditions: read-out: GI
SK-MEL-28 = assay: Growth inhibition of human SK-MEL-28 cells assessed as cell growth at 10^-8 M by sulforhodamine B assay; conditions: read-out: Activity
SW-620 [15] = assay: Growth inhibition of human SW620 cells by sulforhodamine B assay
SF-539 [16] = assay: Growth inhibition of human SF539 cells assessed as cell growth at 10^-8 M by sulforhodamine B assay; conditions: read-out: Activity
IGROV-1 = assay: Growth inhibition of human IGROV1 cells assessed as cell growth at 10^-4 M by sulforhodamine B assay; conditions: read-out: Activity
SW-620 [17] = assay: Growth inhibition of human SW620 cells assessed as cell growth at 10^-6 M by sulforhodamine B assay; conditions: read-out: Activity
NCI-H226 = assay: Growth inhibition of human NCI-H226 cells assessed as cell growth at 10 uM by sulforhodamine B assay; conditions: read-out: Activity
T47D [18] = assay: Growth inhibition of human T47D cells assessed as cell growth at 10^-6 M by sulforhodamine B assay; conditions: read-out: Activity
A549 = assay: Growth inhibition of human A549/ATCC cells by sulforhodamine B assay
MCF7 = assay: Growth inhibition of human MCF7 cells assessed as cell growth at 10 uM by sulforhodamine B assay; conditions: read-out: Activity
M14 = assay: Growth inhibition of human M14 cells assessed as growth inhibition at 10 uM by sulforhodamine B assay; conditions: read-out: GI
SF-268 = assay: Growth inhibition of human SF268 cells assessed as growth inhibition at 10 uM by sulforhodamine B assay; conditions: read-out: GI
HOP-62 = assay: Growth inhibition of human HOP62 cells assessed as cell growth at 10^-8 M by sulforhodamine B assay; conditions: read-out: Activity
RXF 393 [19] = assay: Growth inhibition of human RXF393 cells assessed as growth inhibition at 10 uM by sulforhodamine B assay; conditions: read-out: GI
RXF 393 [20] = assay: Growth inhibition of human RXF393 cells assessed as cell growth at 10 uM by sulforhodamine B assay; conditions: read-out: Activity
SN12C = assay: Growth inhibition of human SN12C cells assessed as growth inhibition at 10 uM by sulforhodamine B assay; conditions: read-out: GI
[21] = read-out: LC50 (the source's name)
[22] = read-out: pLC50 (the source's name) (converted)

**Q.** Which results are given for `C/C=C(/C)C(=O)O[C@@H]1CC(C)(C)C[C@H]2C3=CC[C@@H]4[C@@]5(C)CCC(=O)C(C)(C)[C@@H]5CC[C@@]4(C)[C@]3(C)CC[C@@]12C(=O)O` [LANTADENE A]?
**A.** growth at 10 µM (CCRF-CEM [1]): 43.6%; growth at 10 µM (HCT-116): 34%; growth at 0.1 µM (RXF 393 [2]): 91%; growth at 1 µM (DU-145): 102%; inhibition of growth at 10 µM [3]: 21.2%; growth at 0.01 µM (BT-549 [4]): 99%; growth at 10 µM (T47D [5]): 63.9%; GI50 (OVCAR-3; read-out: GI50): 5.89 µM; CC50 (OVCAR-3; [21]): > 100 µM; TGI (OVCAR-3; read-out: TGI): > 100 µM; GI50 (OVCAR-3; read-out: pGI50 (converted)): 5.89 µM; CC50 (OVCAR-3; [22]): > 100 µM; TGI (OVCAR-3; read-out: pTGI (converted)): > 100 µM; growth at 0.01 µM (A498 [6]): 83%; growth at 1 µM (OVCAR-5): 98%; growth at 10 µM (A498 [7]): 76.2%; growth at 10 µM (BT-549 [8]): 44%; growth at 0.01 µM (HOP-92): 87%; growth at 1 µM (HT-29): 85%; growth at 0.1 µM (T47D [9]): 99%; inhibition of growth at 10 µM (UO-31): 57.4%; inhibition of growth at 10 µM (ACHN): 46.1%; GI50 (SF-539 [10]; read-out: GI50): 6.51 µM; CC50 (SF-539 [10]; [21]): > 100 µM; TGI (SF-539 [10]; read-out: TGI): > 100 µM; GI50 (SF-539 [10]; read-out: pGI50 (converted)): 6.46 µM; CC50 (SF-539 [10]; [22]): > 100 µM; TGI (SF-539 [10]; read-out: pTGI (converted)): > 100 µM; inhibition of growth at 10 µM (OVCAR-8): 36.3%; GI50 (UACC-62; read-out: GI50): 1.73 µM; CC50 (UACC-62; [21]): 43 µM; TGI (UACC-62; read-out: TGI): 6.56 µM; GI50 (UACC-62; read-out: pGI50 (converted)): 1.74 µM; CC50 (UACC-62; [22]): 42.7 µM; TGI (UACC-62; read-out: pTGI (converted)): 6.61 µM; growth at 10 µM (NCI-H460): 51.5%; growth at 10 µM (LOX IMVI [11]): 61.8%; growth at 1 µM (786-0): 93%; inhibition of growth at 10 µM (CCRF-CEM [12]): 56.4%; GI50 ([13]; HCC 2998, read-out: GI50): 3.33 µM; CC50 ([13]; HCC 2998, read-out: LC50 (the source's name)): > 100 µM; TGI ([13]; HCC 2998, read-out: TGI): > 100 µM; GI50 ([13]; HCC 2998, read-out: pGI50 (converted)): 3.31 µM; CC50 ([13]; HCC 2998, read-out: pLC50 (the source's name) (converted)): > 100 µM; TGI ([13]; HCC 2998, read-out: pTGI (converted)): > 100 µM; growth at 10 µM (SR): 69.5%; growth at 1 µM (NCI-H322M): 90%; inhibition of growth at 10 µM (LOX IMVI [14]): 38.2%; growth at 0.01 µM (SK-MEL-28): 97%; GI50 (SW-620 [15]; read-out: GI50): 4.48 µM; CC50 (SW-620 [15]; [21]): > 100 µM; TGI (SW-620 [15]; read-out: TGI): > 100 µM; GI50 (SW-620 [15]; read-out: pGI50 (converted)): 4.47 µM; CC50 (SW-620 [15]; [22]): > 100 µM; TGI (SW-620 [15]; read-out: pTGI (converted)): > 100 µM; growth at 0.01 µM (SF-539 [16]): 102%; growth at 100 µM (IGROV-1): 30%; growth at 1 µM (SW-620 [17]): 90%; growth at 10 µM (NCI-H226): 82%; growth at 1 µM (T47D [18]): 93%; GI50 (A549; read-out: GI50): 2.84 µM; CC50 (A549; [21]): > 100 µM; TGI (A549; read-out: TGI): > 100 µM; GI50 (A549; read-out: pGI50 (converted)): 2.82 µM; CC50 (A549; [22]): > 100 µM; TGI (A549; read-out: pTGI (converted)): > 100 µM; growth at 10 µM (MCF7): 54.7%; inhibition of growth at 10 µM (M14): 36.2%; inhibition of growth at 10 µM (SF-268): 25.9%; growth at 0.01 µM (HOP-62): 92%; inhibition of growth at 10 µM (RXF 393 [19]): 11.5%; growth at 10 µM (RXF 393 [20]): 88.5%; inhibition of growth at 10 µM (SN12C): 47.6%
